Holding throughout (test): High-throughput kinase assay
Holding throughout (format): biochemical

One test addresses T1, AURKA (Aurora A) (Homo sapiens, UniProt O14965).
T1 sequence (O14965 1-403): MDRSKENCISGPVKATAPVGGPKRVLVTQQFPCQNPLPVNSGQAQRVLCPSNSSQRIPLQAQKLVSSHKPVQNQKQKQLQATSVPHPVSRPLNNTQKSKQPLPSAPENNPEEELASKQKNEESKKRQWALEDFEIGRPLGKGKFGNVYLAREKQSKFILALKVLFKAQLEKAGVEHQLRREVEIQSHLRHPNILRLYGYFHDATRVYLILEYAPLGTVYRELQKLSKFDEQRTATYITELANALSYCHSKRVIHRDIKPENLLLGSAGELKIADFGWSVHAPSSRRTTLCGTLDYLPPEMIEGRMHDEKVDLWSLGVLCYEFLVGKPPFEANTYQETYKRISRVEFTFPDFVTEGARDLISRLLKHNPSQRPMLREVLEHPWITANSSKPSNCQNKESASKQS
The settings on record: for inhibition at 0.1 µM: 100 nM; for inhibition at 0.5 µM: 500 nM. The protocol:
(§1) Screening of Compounds 1-4 against several kinases identified two prominent targets of these compounds as the Aurora A kinase and calcium dependent protein kinase C isoforms α, βI, βII and […] (Tables 1 to 3). IC50s for these two targets were obtained by plotting inhibition levels at 500 nM, 100 nM, 50 nM and 10 nM (FIG. 3). These kinases are directly involved in pathways controlling cell differentiation programs, metastasis signaling, as well as EMT and CSC programming and their overexpression was reported to predict decreased metastasis-free survival.

Another test deals with BRAF-ZLYTE-100 (Homo sapiens, UniProt P15056). Particulars: 100 nM; read-out: Percent inhibition of kinase activity in vitro, BRAF-ZLYTE-100. The protocol: as §1
The target of a further test is EEF2K (Homo sapiens, UniProt O00418). The settings on record: read-out: Percent inhibition of kinase activity in vitro, EEF2K; for inhibition at 0.1 µM: 100 nM; for inhibition at 0.5 µM: 500 nM. The protocol:
as §1

The target of the next test is FRAP1 (mTOR) (Homo sapiens, UniProt P42345). The settings on record: read-out: Percent inhibition of kinase activity in vitro, FRAP1 (mTOR); for inhibition at 0.1 µM: 100 nM; for inhibition at 0.5 µM: 500 nM. The protocol: as §1
A further test has as its target PRKCG (PKC gamma) (Homo sapiens, UniProt P05129). Particulars: 50 nM; read-out: Percent inhibition of kinase activity in vitro, PRKCG (PKC gamma). The protocol: as §1
The next test has as its target T2, PRKCZ (PKC zeta) (Homo sapiens, UniProt Q05513).
T2 sequence (Q05513 1-592): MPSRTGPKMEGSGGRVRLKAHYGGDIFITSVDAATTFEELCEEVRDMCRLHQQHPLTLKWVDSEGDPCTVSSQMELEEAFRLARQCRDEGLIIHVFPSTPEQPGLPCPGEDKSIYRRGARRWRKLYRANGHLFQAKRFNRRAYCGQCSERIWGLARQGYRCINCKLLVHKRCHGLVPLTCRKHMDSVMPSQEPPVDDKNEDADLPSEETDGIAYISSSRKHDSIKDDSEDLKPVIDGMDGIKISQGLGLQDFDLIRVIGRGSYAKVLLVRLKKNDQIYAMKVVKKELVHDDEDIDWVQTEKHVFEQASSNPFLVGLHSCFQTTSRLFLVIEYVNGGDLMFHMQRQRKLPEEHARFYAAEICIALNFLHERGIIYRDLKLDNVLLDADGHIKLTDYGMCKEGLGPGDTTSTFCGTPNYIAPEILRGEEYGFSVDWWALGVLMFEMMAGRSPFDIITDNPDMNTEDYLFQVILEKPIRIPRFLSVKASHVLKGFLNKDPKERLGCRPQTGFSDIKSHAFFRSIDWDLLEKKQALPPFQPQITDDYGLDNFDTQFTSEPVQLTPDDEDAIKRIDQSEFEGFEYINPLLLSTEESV
The settings on record: 50 nM; read-out: Percent inhibition of kinase activity in vitro, PRKCZ (PKC zeta). The protocol:
as §1

In another test the target is RAF1 (cRAF) Y340D Y341D (Homo sapiens, UniProt P04049, Y340D/Y341D). The settings on record: 500 nM; read-out: Percent inhibition of kinase activity in vitro, RAF1 (cRAF) Y340D Y341D. The protocol:
as §1

For a further test, the target named is T3, TGFBR1 (ALK5) (Homo sapiens, UniProt P36897).
T3 sequence (P36897 34-503): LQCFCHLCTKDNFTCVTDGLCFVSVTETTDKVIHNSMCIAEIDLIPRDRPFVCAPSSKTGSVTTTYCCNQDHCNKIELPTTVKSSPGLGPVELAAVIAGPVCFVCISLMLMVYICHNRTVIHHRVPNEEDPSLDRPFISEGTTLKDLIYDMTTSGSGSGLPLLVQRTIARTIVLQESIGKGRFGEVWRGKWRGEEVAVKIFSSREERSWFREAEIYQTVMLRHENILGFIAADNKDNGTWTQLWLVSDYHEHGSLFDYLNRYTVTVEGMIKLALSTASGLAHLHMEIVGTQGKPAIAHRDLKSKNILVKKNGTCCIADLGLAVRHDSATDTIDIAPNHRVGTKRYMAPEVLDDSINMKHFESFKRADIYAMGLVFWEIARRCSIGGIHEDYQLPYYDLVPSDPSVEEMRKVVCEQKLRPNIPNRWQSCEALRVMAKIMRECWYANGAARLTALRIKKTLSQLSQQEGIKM
The settings on record: read-out: Percent inhibition of kinase activity in vitro, TGFBR1 (ALK5); for inhibition at 0.1 µM: 100 nM; for inhibition at 0.5 µM: 500 nM. The protocol: as §1

Setting [1] is: read-out: Percent inhibition of kinase activity in vitro, AURKA (Aurora A).

One may read the inhibition as the change of the read-out against control, counted positive when it falls. What is called IC50 is the concentration that inhibits the measured activity by half. The low end stands for greater potency in that assay, the high end for weaker potency in that assay.

Sequence of BRAF-ZLYTE-100 (P15056 whole entry): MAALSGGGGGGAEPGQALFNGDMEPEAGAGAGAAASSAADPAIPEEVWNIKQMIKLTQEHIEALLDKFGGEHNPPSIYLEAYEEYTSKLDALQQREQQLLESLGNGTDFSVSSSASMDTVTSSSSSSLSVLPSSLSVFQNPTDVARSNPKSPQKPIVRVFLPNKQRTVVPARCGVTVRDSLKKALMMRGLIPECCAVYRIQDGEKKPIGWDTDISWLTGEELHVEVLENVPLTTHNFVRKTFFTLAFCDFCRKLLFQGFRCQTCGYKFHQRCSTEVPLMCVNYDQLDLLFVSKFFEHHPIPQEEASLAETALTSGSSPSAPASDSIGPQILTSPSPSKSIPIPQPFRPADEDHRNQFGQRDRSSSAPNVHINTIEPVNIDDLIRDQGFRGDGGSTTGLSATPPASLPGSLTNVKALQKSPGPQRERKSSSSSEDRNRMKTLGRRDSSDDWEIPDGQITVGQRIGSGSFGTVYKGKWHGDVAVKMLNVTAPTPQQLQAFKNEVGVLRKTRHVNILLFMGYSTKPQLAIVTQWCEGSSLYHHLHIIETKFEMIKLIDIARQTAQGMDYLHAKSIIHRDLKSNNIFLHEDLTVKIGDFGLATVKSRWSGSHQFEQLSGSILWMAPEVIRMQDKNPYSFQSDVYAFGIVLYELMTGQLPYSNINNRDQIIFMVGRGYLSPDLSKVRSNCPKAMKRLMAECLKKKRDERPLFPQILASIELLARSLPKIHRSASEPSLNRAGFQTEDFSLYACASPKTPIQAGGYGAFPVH
Sequence of RAF1 (cRAF) Y340D Y341D (P04049 whole entry Y340D/Y341D): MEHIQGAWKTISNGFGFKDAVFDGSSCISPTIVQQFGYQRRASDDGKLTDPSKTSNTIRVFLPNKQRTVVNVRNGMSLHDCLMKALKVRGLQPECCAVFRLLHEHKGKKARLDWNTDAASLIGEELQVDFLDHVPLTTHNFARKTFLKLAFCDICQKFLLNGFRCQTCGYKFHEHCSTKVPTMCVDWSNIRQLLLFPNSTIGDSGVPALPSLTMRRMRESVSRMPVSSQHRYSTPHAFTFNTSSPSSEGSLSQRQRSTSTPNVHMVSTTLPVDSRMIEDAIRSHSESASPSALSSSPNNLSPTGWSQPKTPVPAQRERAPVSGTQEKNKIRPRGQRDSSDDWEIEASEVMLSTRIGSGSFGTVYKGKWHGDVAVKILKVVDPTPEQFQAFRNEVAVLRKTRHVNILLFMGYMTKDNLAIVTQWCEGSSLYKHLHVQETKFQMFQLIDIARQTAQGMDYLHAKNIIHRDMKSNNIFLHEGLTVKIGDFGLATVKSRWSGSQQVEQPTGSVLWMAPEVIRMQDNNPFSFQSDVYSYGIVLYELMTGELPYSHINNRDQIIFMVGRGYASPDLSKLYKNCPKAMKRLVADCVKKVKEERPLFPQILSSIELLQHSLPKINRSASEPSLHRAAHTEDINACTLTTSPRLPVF

As for `O=c1c2ccccc2[se]n1-c1nc(NC2CCCCC2)c2nc[nH]c2n1` [Compound 1], the inhibition at 0.1 µM on AURKA (Aurora A) (setting [1]) turned out to be 89%; at BRAF-ZLYTE-100, 1%; on EEF2K, 7%; at FRAP1 (mTOR), 1%; on TGFBR1 (ALK5), 0%. Besides, the inhibition at 0.5 µM is 94% on AURKA (Aurora A) (setting [1]); 11% at EEF2K; 2% on FRAP1 (mTOR); 4% on RAF1 (cRAF) Y340D Y341D; 0% at TGFBR1 (ALK5). Moreover, the inhibition at 0.05 µM on PRKCG (PKC gamma) was 45%; at PRKCZ (PKC zeta), 9%.
For `O=c1c2ccccc2[se]n1-c1nc(NC2CC[Se]C2)c2nc[nH]c2n1` (stereo not drawn) [Compound 2], the inhibition at 0.1 µM on AURKA (Aurora A) (setting [1]) was determined as 93%; at BRAF-ZLYTE-100, 0%; at TGFBR1 (ALK5) it was 0%. The inhibition at 0.5 µM was found to be 97% on AURKA (Aurora A) (setting [1]); 11% on EEF2K; 5% on FRAP1 (mTOR); 0% at RAF1 (cRAF) Y340D Y341D; 0% at TGFBR1 (ALK5).
Take `C[C@@H]1C(Nc2nc(-n3[se]c4ccccc4c3=O)nc3[nH]cnc23)C[C@H]2C[C@@H]1C2(C)C` (stereo partly drawn) [Compound 3]: the inhibition at 0.1 µM worked out at 78% on AURKA (Aurora A) (setting [1]), 0% on BRAF-ZLYTE-100 and 3% on TGFBR1 (ALK5). For the same compound, the inhibition at 0.5 µM on AURKA (Aurora A) (setting [1]) is 99%; on EEF2K, 5%; on FRAP1 (mTOR), 1%; on RAF1 (cRAF) Y340D Y341D, 10%; on TGFBR1 (ALK5) it was 0%.
`O=c1c2ccccc2[se]n1-c1nc(N[C@H]2CC[Se]C2)c2nc[nH]c2n1` [Compound 4]: the inhibition at 0.01 µM at AURKA (Aurora A) (10 nM, read-out: Percent inhibition of kinase activity in vitro, AURKA (Aurora A)) amounted to 55%. The inhibition at 0.05 µM worked out at 87% on AURKA (Aurora A) (50 nM, read-out: Percent inhibition of kinase activity in vitro, AURKA (Aurora A)); 47% at PRKCG (PKC gamma); 12% at PRKCZ (PKC zeta). Moreover, the inhibition at 0.1 µM was 95% on AURKA (Aurora A) (setting [1]); 0% at BRAF-ZLYTE-100; 10% on EEF2K; 8% on FRAP1 (mTOR); 0% at TGFBR1 (ALK5). Besides, the half-inhibitory concentration (IC50) against AURKA (Aurora A) (from inhibition levels at 500, 100, 50 and 10 nM) was 3.8 nM.
`O=C1c2ccccc2CN1c1nc(NC2CCCCC2)c2nc[nH]c2n1` [SLLN-6C, reference compound]: the inhibition at 0.1 µM came out at 4% at AURKA (Aurora A) (setting [1]); 1% on BRAF-ZLYTE-100; 1% on EEF2K; 0% on FRAP1 (mTOR); 0% at TGFBR1 (ALK5). Moreover, the inhibition at 0.05 µM stood at 0% at PRKCG (PKC gamma) and 9% at PRKCZ (PKC zeta).
